# Test results published in paper PMC10310857 (Nature Communications, 2023).
# Several values for one entry are separate records, joined by “and”; a condition that tells them apart may be missing. Identical values can stand only once. Entries after “also recorded” stand apart in the source; their conditions may differ.
# Tests used:
# VdPDA1 [1] = target: T1, VdPDA1 (Verticillium dahliae, UniProt G2X9U7); type: biochemical
# Pst_13661 = Pst_13661 (Puccinia striiformis f. sp. tritici, UniProt A0A0L0V0Y3, T32S); type: biochemical
# V. dahliae strain V991 = type: cell-based, Verticillium dahliae
# [2] = test system: F. graminearum strain Fg-1; type: cell-based
# V. dahliae = conditions: in vivo
# VdPDA1 [3] = target: T1, VdPDA1; assay: biochemical
# Procedure: The enzymatic activity of recombinantly expressed proteins was assayed using a fluorogenic labeling method[29]. The reaction mixture consisted of 100 μL of 100 nM testing enzyme and 0.5 mM (GlcNAc)3 in a 50 mM Hepes (pH 7.5) buffer. After incubation for 10 min at 30 °C, free amine production was measured using fluorescamine labeling and quantified with a glucosamine standard. All measurements were carried out in triplicate.
# The compounds were screened to identify the small molecules inhibiting VdPDA1 and Pst_13661 using a liquid-handling robot. The compounds were prepared in a 96-well plate containing one compound per well at 10 mM each in 100% DMSO (except for BHA, which was dissolved in ddH2O). The plates were first diluted to 5 mM. The compounds were screened at 100 μM in 2% DMSO in a final reaction volume of 100 μL, containing 100 nM enzyme and 0.5 mM (GlcNAc)3 in 50 mM Hepes (pH 7.5) buffer. Negative enzyme-free controls and positive controls with and without DMSO were prepared. The plates were incubated at 30 °C for 10 min. All measurements were carried out in triplicate.
# For the determination of the inhibition constants Ki, three substrate (GlcNAc)3 concentrations (0.5, 0.2, and 0.1 mM) and varied inhibitor concentrations were used. The Ki values were determined using Dixon plots[56]. In Dixon plots, the value of lines intersection that converges above the x-axis is denoted as Ki. […]
# T. harzianum T27 = type: cell-based, Trichoderma harzianum
# R. solani = test system: R. solani; set-up: species or system R. solani strain RS-1 on soybean; conditions: in vivo
# GhMPK6 = test system: GhMPK6; set-up: species or system Gossypium hirsutum cv. Lvmian; conditions: in vivo
# GhRbohD = test system: GhRbohD; set-up: species or system Gossypium hirsutum cv. Lvmian; conditions: in vivo
# R. solani strain RS-1 = type: cell-based
# F. graminearum = test system: F. graminearum; set-up: species or system F. graminearum strain Fg-1 on soybean; conditions: in vivo
# F. oxysporum strain Fo-2 = type: cell-based
# BmCDA7 = BmCDA7 (Bombyx mori, UniProt H9JW44)
# Chain of BmCDA7 (H9JW44 16-364): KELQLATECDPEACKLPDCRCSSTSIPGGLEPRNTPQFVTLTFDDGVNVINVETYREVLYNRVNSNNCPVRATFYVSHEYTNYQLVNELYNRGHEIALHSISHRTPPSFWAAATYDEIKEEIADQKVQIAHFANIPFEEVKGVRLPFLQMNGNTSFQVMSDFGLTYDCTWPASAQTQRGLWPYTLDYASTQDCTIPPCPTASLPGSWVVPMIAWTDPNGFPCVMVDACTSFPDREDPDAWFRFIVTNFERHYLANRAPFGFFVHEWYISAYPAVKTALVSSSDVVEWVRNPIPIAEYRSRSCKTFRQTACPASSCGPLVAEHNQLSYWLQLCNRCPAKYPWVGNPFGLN
# Source text: Effect o f BHA o n the activity of BmCDA7 from the insect Bombyx
# mori. Bars in all graphs represent mean values, whiskers represent mean ± SEM, and black
# F. oxysporum = test system: F. oxysporum; set-up: species or system F. oxysporum strain Fo-2 on soybean; conditions: in vivo
# [4] = test system: P. striiformis f. sp. tritici (strain CYR32); set-up: species or system P. striiformis f. sp. tritici on wheat; conditions: in vivo
compound,measurement,setting,value
[Ni+2] [Ni2+],"Fig. S1d enzyme activity, Exp1",VdPDA1 [1],36.44
same,"Fig. S1d enzyme activity, Exp2",VdPDA1 [1],38.96
same,"Fig. S1d enzyme activity, Exp3",VdPDA1 [1],38.03
same,"Fig. S1d enzyme activity, Mean",VdPDA1 [1],37.81
same,"Fig. S1c enzyme activity, Exp1",Pst_13661,49.78
same,"Fig. S1c enzyme activity, Exp2",Pst_13661,47.40
same,"Fig. S1c enzyme activity, Exp3",Pst_13661,46.47
same,"Fig. S1c enzyme activity, Mean",Pst_13661,47.88
"O=C(NO)c1ccccc1 [Compound 1, benzohydroxamic acid]",Colony morphology and hyphae growth of V. dahliae,V. dahliae strain V991,not affected
same,"Fungal growth (Fig. S3b), Mean",V. dahliae strain V991,3.65 and 3.60 and 3.58
same,"Fungal growth (Fig. S3b), Mean",[2],4.15 and 4.13 and 4.08
same,Growth and morphology of F. graminearum,[2],normal morphology and developmental status; also recorded: does not affect the growth
same,Fungal biomass on cotton plants,V. dahliae,significantly reduced
same,Fungal biomass on cotton plants (Fig. 3c) Mean,V. dahliae,0.5294 and 0.2725
same,Wilt symptoms of cotton plants,V. dahliae,did not exhibit wilt symptoms
same,Ki,VdPDA1 [3],8.31 µM
same,"Fungal growth (Fig. S3b), Mean",T. harzianum T27,3.65 and 3.63
same,Growth of Trichoderma harzianum,T. harzianum T27,does not affect the growth
same,Fungal biomass of soybean hypocotyls,R. solani,significantly reduced fungal biomass
same,Lesions on soybean hypocotyls,R. solani,fewer lesions
same,GhMPK6 expression in cotton roots,GhMPK6,upregulated
same,GhRbohD expression in cotton roots,GhRbohD,upregulated
same,"Fungal growth (Fig. S3b), Mean",R. solani strain RS-1,3.03 and 3.13
same,Growth and morphology of R. solani,R. solani strain RS-1,normal morphology and developmental status; also recorded: does not affect the growth
same,Fungal biomass of soybean hypocotyls,F. graminearum,significantly reduced fungal biomass
same,Lesions on soybean hypocotyls,F. graminearum,fewer lesions
same,"Fungal growth (Fig. S3b), Mean",F. oxysporum strain Fo-2,2.98 and 2.90 and 2.95
same,Growth and morphology of F. oxysporum,F. oxysporum strain Fo-2,normal morphology and developmental status; also recorded: does not affect the growth
same,"Activity of BmCDA7 (Fig. S4), Mean",BmCDA7,101.71 and 105.43
same,Inhibition of insect chitin deacetylases,BmCDA7,could not inhibit
same,Fungal biomass of soybean hypocotyls,F. oxysporum,significantly reduced fungal biomass
same,Fungal biomass of soybean hypocotyls (Fig. 5h) Mean,F. oxysporum,0.6738 and 0.6606 and 0.4822
same,Lesions on soybean hypocotyls,F. oxysporum,fewer lesions
same,Disease indices after P. striiformis f. sp. tritici infection of wheat plants,[4],greatly declined
O=C(O)c1cccc(C(=O)O)n1 [DPA],"Fig. S1d enzyme activity, Exp1",VdPDA1 [1],0.31
same,"Fig. S1d enzyme activity, Exp2",VdPDA1 [1],-0.24
same,"Fig. S1d enzyme activity, Exp3",VdPDA1 [1],-0.41
same,"Fig. S1d enzyme activity, Mean",VdPDA1 [1],-0.11
same,"Fig. S1c enzyme activity, Exp1",Pst_13661,4.96
same,"Fig. S1c enzyme activity, Exp2",Pst_13661,8.16
same,"Fig. S1c enzyme activity, Exp3",Pst_13661,14.56
same,"Fig. S1c enzyme activity, Mean",Pst_13661,9.23
[Zn+2] [Zn2+],"Fig. S1d enzyme activity, Exp1",VdPDA1 [1],76.18
same,"Fig. S1d enzyme activity, Exp2",VdPDA1 [1],78.11
same,"Fig. S1d enzyme activity, Exp3",VdPDA1 [1],78.27
same,"Fig. S1d enzyme activity, Mean",VdPDA1 [1],77.52
same,"Fig. S1c enzyme activity, Exp1",Pst_13661,97.91
same,"Fig. S1c enzyme activity, Exp2",Pst_13661,92.55
same,"Fig. S1c enzyme activity, Exp3",Pst_13661,105.61
same,"Fig. S1c enzyme activity, Mean",Pst_13661,98.69
